Assay results as given in patent US20240269227A1, “CALCIUM-SENSING RECEPTOR AGONIST COMPOSITION AND APPLICATION THEREOF” (Beijing Tuo Jie Biopharmaceutical Co. Ltd., priority 2021, published 2024).
Where a SMILES comes first, the peptide text is derived from it. [ ]: non-standard residue; d: D form. The star is where a group is joined. Cys(free,S-linked) = N[C@@H](CS*)C(=O)O; dAbu = CC[C@@H](N)C(=O)O

Experiments:
[1] = system: rat peritoneal mast cells; assay: In vitro histamine release in rat peritoneal mast cells; assay type: cell-based; conditions: final concentration 10 μM
Description: To evaluate the in vitro histamine release levels induced by some of the test example compounds, rat peritoneal mast cells were collected by lavaging rat peritoneum with a lavage buffer (cold HBSS+25 mM HEPES containing heparin 5 U/mL, pH 7.4). After collection, the cells were centrifuged, and the lavage buffer was discarded. The cells were resuspended and washed twice with a stimulation buffer (HBSS+25 mM HEPES+1 mM CaCl2), pH 7.4). The cells were plated at a density of 10^5 cell/well (200 μL/well) and incubated at 37° C. for 15 min with positive control compound 48/80 (final concentration: 4 μg/mL), test example compound (final concentration: 10 μM) or vehicle control. The cells were centrifuged, and cell supernatant was collected and tested for histamine concentration according to LDN Histamine ELISA kit (BAE-1000) instructions.

normal rats = assay: In vivo efficacy in a normal rat model after a single dose; design: species or system rat (Sprague Dawley); conditions: 3 mg/kg intravenous
Description: SPF normal adult rats (Sprague Dawley, or SD) with weight of 250-350 g were fed with normal diet in an animal room for 7 days. Rats were randomized into groups of 6, half female and half male, and numbered. The day before the start of the experiment, 540 μL of blood was collected from each rat, and the plasma parathyroid hormone levels and the serum calcium ion concentration were measured as control values before administration. […] The plasma parathyroid hormone levels were measured using the Rat Intact PTH ELISA Kit (Quidel—Immunotopics, Cat. #: 60-2500; ELISA: Enzyme-linked immunosorbent assay) according to the kit instructions. […] The absorbance at 450 nm in each well was detected within 10 min after the addition of the ELISA terminating solution, while the absorbance at 620 nm was subtracted as background. A mixture of horseradish peroxidase ELISA substrate 150 μL and ELISA terminating solution 100 μL was used as the blank control in the absorbance detection. A standard curve according to the absorbance of the reference standard was plotted, and the actual plasma parathyroid hormone concentration was calculated according to the absorbance of other samples and the standard curve. […]

human red blood cells = assay: Hemolytic effect on human red blood cells in vitro; conditions: compound of formula (I) at 100 μg/mL; 37° C. for 1 h; absorbance at 540 nm; FIG. 1

histamine release levels in rat peritoneal mast cells in vitro relative to the etelcalcetide [1] | Relative fold of histamine release in vitro ([1]; 37° C. 15 min, relative to PBS buffer) | Molecule | serum calcium ion levels (normal rats; FIG. 3) | plasma parathyroid hormone levels (normal rats; within 4 h, FIG. 2) | hemolytic effect on red blood cells (human red blood cells)
greatly reduced | 0.97 | CC[C@@H](NC(=O)[C@@H](CCCNC(=N)N)NC(=O)[C@@H](CCCNC(=N)N)NC(=O)[C@@H](CSSC[C@H](N)C(=O)O)NC(C)=O)C(=O)N[C@H](CCCNC(=N)N)C(=O)N[C@H](C)C(=O)N[C@H](CCCNC(=N)N)C(N)=O [Compound of formula (I), Ac-c(C)-r-r-(D-Abu)-r-a-r-NH2] (Ac-[dC](Cys(free,S-linked))[dR][dR][dAbu][dR][dA][dR]-NH2) | correspondingly reduced | completely reduced | –
– | – | polyethylene glycol octyl phenyl ether | – | – | significant hemolytic effect
